This note sets out measurements from publication PMC7587356, “High-Throughput Screening for Inhibitors of the SARS-CoV-2 Protease Using a FRET-Biosensor” (Molecules, 2020).

For this assay, the target named is SARS-CoV-2 3CLpro (Severe acute respiratory syndrome coronavirus 2, UniProt P0DTD1). The experiment in a line: biochemical. Format: biochemical. Set-up: Replicate_1 / Replicate_2 / mean / mean (LOPAC_screen_w_protease): unit not given here. As to conditions: for inhibition at 5 µM: 4 h.
Setting [1] is: sheet LOPAC_screen_w_protease, LOPAC1280 primary screen with protease, 5 µM compound, mean of the two replicates.
Setting [2] is: sheet LOPAC_screen_w_protease, LOPAC1280 primary screen with protease, 5 µM compound, replicate 1.
Setting [3] is: sheet LOPAC_screen_w_protease, LOPAC1280 primary screen with protease, 5 µM compound, replicate 2.
The mark [4] stands for this setting: sheet LOPAC_screen_w_protease, primary screen of LOPAC1280 at 5 µM with protease, mean of the two replicates.
The mark [5] stands for this setting: sheet LOPAC_screen_w_protease, primary screen of LOPAC1280 at 5 µM with protease, replicate 1.
The mark [6] stands for this setting: sheet LOPAC_screen_w_protease, primary screen of LOPAC1280 at 5 µM with protease, replicate 2.
The mark [7] stands for this setting: LOPAC1280 primary screen with protease, 5 µM compound, mean of the two replicates.
The mark [8] stands for this setting: sheet LOPAC_screen_w_protease, primary screen with protease, 5 µM, mean of two replicates.
Where [9] appears, read: sheet LOPAC_screen_w_protease, primary screen with protease, 5 µM, replicate 1.
[10] abbreviates: sheet LOPAC_screen_w_protease, primary screen with protease, 5 µM, replicate 2.

Structures can show the parent of a compound that is named as a salt. Where two headings read alike, the source gives them in different places.

For the compound `COc1cc(C(O)CN)ccc1O.Cl` (racemic) [(±)-Normetanephrine hydrochloride], the mean under setting [1] stood at 4.101. Further, the Replicate_1 under setting [2] stood at 4.337. Besides, the Replicate_2 under setting [3] is listed as 3.864.
On the same counts, the results for `Cc1nnc2ccc(-c3cccc(C(F)(F)F)c3)nn12` are 4.5531, 2.841 and 6.265.
On to `CCCCNc1c(C(=O)OCC)c(C)nc2c1cnn2CC` [Tracazolate], for which the inhibition at 5 µM runs as follows: (sheet LOPAC_screen_w_protease, primary screen with protease, 5 µM, mean of two replicates, read-out: mean) -0.116%; (sheet LOPAC_screen_w_protease, primary screen with protease, 5 µM, replicate 1, read-out: Replicate_1) 0.109%; (sheet LOPAC_screen_w_protease, primary screen with protease, 5 µM, replicate 2, read-out: Replicate_2) -0.341%.
In the case of `N#C/C(=C\c1ccc(O)c(O)c1)C(=O)N1CCc2ccccc21` [Tyrphostin AG 528], the mean under setting [4] worked out at 3.92. The same compound registered a Replicate_1 under setting [5] of 3.707. Besides, under setting [6], the Replicate_2 is reported as 4.133.
In the case of `N=c1ccn2c(n1)O[C@H]1[C@H](O)[C@@H](CO)O[C@H]12` [Ancitabine hydrochloride], the inhibition at 5 µM (sheet LOPAC_screen_w_protease, primary screen with protease, mean of two replicates, read-out: mean) amounted to 2.45%; the inhibition at 5 µM (sheet LOPAC_screen_w_protease, primary screen with protease, replicate 1, read-out: Replicate_1) is 2.42%; the inhibition at 5 µM (sheet LOPAC_screen_w_protease, primary screen with protease, replicate 2, read-out: Replicate_2) was 2.49%.
Turning to `CN1CCN(CC(=O)N2c3ccccc3C(=O)Nc3cccnc32)CC1` [Pirenzepine dihydrochloride], the inhibition at 5 µM by setting is: (LOPAC1280 primary screen with protease, 5 µM compound, replicate 1, read-out: Replicate_1 (LOPAC_screen_w_protease)) 2.98%; (LOPAC1280 primary screen with protease, 5 µM compound, replicate 2, read-out: Replicate_2 (LOPAC_screen_w_protease)) 0.888%. Besides, the “mean (LOPAC_screen_w_protease)” value under setting [7] worked out at 1.931.
The compound `C[C@]12C=CC(=O)C=C1CC[C@@H]1C2=CC[C@]2(C)[C@@H](C(=O)CN3CCN(c4cc(N5CCCC5)nc(N5CCCC5)n4)CC3)CC[C@@H]12.O=C(O)/C=C\C(=O)O` [U-74389G maleate] registered a mean under setting [8] of -0.1973. Under setting [9], this compound displayed a Replicate_1 of -0.4551. In addition, the Replicate_2 under setting [10] turned out to be 0.0606.
On to `Cl.NC1C=CC=C(C(=O)O)C1` (stereo not drawn) [Gabaculine hydrochloride], for which the “mean (LOPAC_screen_w_protease)” value under setting [7] stood at 2.074. Also, the “Replicate_1 (LOPAC_screen_w_protease)” value (LOPAC1280 primary screen with protease, 5 µM compound, replicate 1) was found to be 1.548. Also, the “Replicate_2 (LOPAC_screen_w_protease)” value (LOPAC1280 primary screen with protease, 5 µM compound, replicate 2) stood at 2.6.
Take `CNCCc1ccc(O)c(O)c1.Cl` [N-Methyldopamine hydrochloride]: the mean (sheet LOPAC_screen_w_protease, LOPAC1280 at 5 µM, mean of two replicates) is 1.304. This compound gave a Replicate_1 (sheet LOPAC_screen_w_protease, LOPAC1280 at 5 µM, replicate 1) of 0.8088. The same compound gave a Replicate_2 (sheet LOPAC_screen_w_protease, LOPAC1280 at 5 µM, replicate 2) of 1.799.
Turning to `C[n+]1cc2c3c(ccc2c2ccc4cc5c(cc4c21)OCO5)OCO3` [Sanguinarine chloride], the inhibition at 5 µM is, setting by setting: (read-out: Replicate_1 (LOPAC screen with protease)) 46.2%; (read-out: Replicate_2 (LOPAC screen with protease)) 43.3%; (read-out: mean (LOPAC screen with protease)) 44.8%.
`Cc1ccccc1N1C(=O)c2cc(S(N)(=O)=O)c(Cl)cc2NC1C` (stereo not drawn) [Metolazone]: the inhibition at 5 µM (sheet LOPAC_screen_w_protease, LOPAC1280 primary screen with protease, 5 µM compound, mean of the two replicates, read-out: mean) came out at 5.24%; the inhibition at 5 µM (sheet LOPAC_screen_w_protease, LOPAC1280 primary screen with protease, 5 µM compound, replicate 1, read-out: Replicate_1) turned out to be 4.55%; the inhibition at 5 µM (sheet LOPAC_screen_w_protease, LOPAC1280 primary screen with protease, 5 µM compound, replicate 2, read-out: Replicate_2) came out at 5.92%.
Under “sheet LOPAC_screen_w_protease, LOPAC1280 primary screen at 5 µM, with protease, mean of the two replicates”, `[Cl-].[Li+]` [Lithium Chloride] came in with a mean of 0.7152. Under “sheet LOPAC_screen_w_protease, LOPAC1280 primary screen at 5 µM, with protease, replicate 1”, this compound showed a Replicate_1 of 0.8231. This compound registered a Replicate_2 (sheet LOPAC_screen_w_protease, LOPAC1280 primary screen at 5 µM, with protease, replicate 2) of 0.6073.
Turning to `COC1(C2=NCCN2)COc2ccccc2O1.Cl` (stereo not drawn) [RX 821002 hydrochloride], the mean under setting [8] worked out at 0.0583. Besides, under setting [9], the Replicate_1 is on record as -1.138. In addition, the Replicate_2 under setting [10] was 1.255.
Take `O=C(N[C@@H](Cc1ccccc1)C(=O)CCl)OCc1ccccc1` [Z-L-Phe chloromethyl ketone]: the inhibition at 5 µM by setting is: (sheet LOPAC_screen_w_protease, primary screen at 5 µM, mean of two replicates, read-out: mean (LOPAC screen with protease)) 100%; (sheet LOPAC_screen_w_protease, primary screen at 5 µM, replicate 1, read-out: Replicate_1 (LOPAC screen with protease)) 100%; (sheet LOPAC_screen_w_protease, primary screen at 5 µM, replicate 2, read-out: Replicate_2 (LOPAC screen with protease)) 100%.
With `CN(C)CCCCSC(=N)N.Cl.Cl` [SKF 91488 dihydrochloride], under “sheet LOPAC_screen_w_protease, primary screen at 5 µM, mean of two replicates”, the “mean (LOPAC screen with protease)” value is reported as 12.1431. Moreover, the “Replicate_1 (LOPAC screen with protease)” value (sheet LOPAC_screen_w_protease, primary screen at 5 µM, replicate 1) is given as 13.4504. The “Replicate_2 (LOPAC screen with protease)” value (sheet LOPAC_screen_w_protease, primary screen at 5 µM, replicate 2) was 10.8358.
Compound `Nc1c2c(nc3ccccc13)CCCC2O.O=C(O)/C=C\C(=O)O` (stereo not drawn) [Hydroxytacrine maleate] showed a mean (sheet LOPAC_screen_w_protease, primary screen with protease, mean of two replicates) of 2.348. Besides, for the setting “sheet LOPAC_screen_w_protease, primary screen with protease, replicate 1”, the Replicate_1 was 3.064. Where the note is “sheet LOPAC_screen_w_protease, primary screen with protease, replicate 2”, this compound displayed a Replicate_2 of 1.632.
In the case of `Cl.c1ccc(CN(CC2=NCCN2)c2ccccc2)cc1` [Antozoline hydrochloride], the mean under setting [4] is listed as 3.208. This compound also came in with a Replicate_1 under setting [5] of 3.9302. Under setting [6], this compound showed a Replicate_2 of 2.486.
